Data from patent publication US9587171B2, “Ammonium salts of chelating agents and their use in oil and gas field applications” (AKZO NOBEL CHEMICALS INTERNATIONAL B.V., priority 2010, dated 2017).

Assay: Descaling efficiency for iron sulfide (FeS) at pH 3.8 as a function of temperature
Type: physicochemical
Details: 20° C., 24 hours, FIG. 4
Procedure: The Parr bomb was placed in an oven at 90° C. The beaker glass was closed with parafilm. After 24 hours at temperature the samples were filtered by a 0.45 micron filter prior to ICP-ES analysis. The descaling efficiency was calculated from the iron concentration in the liquid and the initial amount of FeS.

descaling efficiency for FeS at low temperature: dissolved more FeS at low temperature
Compound: O=C([O-])CC[C@@H](C(=O)[O-])N(CC(=O)[O-])CC(=O)[O-].[Na+].[Na+].[Na+].[Na+] [sodium GLDA]
